Values after ≈ are worked out from the molar mass of the structure shown.
What was measured:
[1] = oral administration; cited from earlier work
physchem = type: physicochemical; settings: organic solvent or mixture
Description: The substantially pure R-cefuroxime axetil of this invention is prepared by selectively solubilizing the R-isomer in a solvent in which the S-isomer is only minimally soluble relative to the R-isomer. Solvents commonly employed are those in which the R-isomer is about six times more soluble in a given volume than the S-isomer. […] Generally, a mixture of R and S-cefuroxime axetil, prepared as described in GB 2,145,409A, and containing the R and S-isomers, is added to a solvent to form a slurry. The best results are obtained employing a solvent that provides sufficient solubility to maintain the desired volume at a minimum. Preferred solvents include alcohols such as methanol and ethanol. […] In isopropanol at 25° C., the R-isomer is 1.84 mg/ml, and the S-isomer is 0.44 mg/ml. In n-butanol at 25° C., the R-isomer is 1.0 mg/ml and the S-isomer is 0.3 mg/ml. In ethyl acetate at 25° C., the R-isomer is 13.42 mg/ml, and the S-isomer is 10.0 mg/ml.

[2] = Microbiological assay of biological potency (Example 2 product); settings: product with 85% by weight R- and 15% S-cefuroxime axetil
[3] = test system: esterase enzymes in blood serum; assay: Hydrolysis by esterase enzymes in dog blood serum (Example 5); type: in vitro ADME
Description: The following study was conducted to establish that S-cefuroxime axetil is hydrolyzed to cefuroxime acid much more rapidly by esterase enzymes in blood serum than the R-cefuroxime axetil of this invention.
Blood serum was obtained from an 11.5 kg male dog two days prior to sacrifice. The whole blood was centrifuged for fifteen minutes at 3500 rpm and 4° C. The serum thus collected was diluted with ten parts Sorenson's phosphate buffer pH 7.4.
A solution was prepared by dissolving 0.29 mg of R-cefuroxime axetil in 50 ml of Sorenson's phosphate buffer pH 7.4. Another solution was prepared by dissolving 0.26 mg of S-cefuroxime acetil in 50 ml of Sorenson's phosphate buffer pH 7.4.
Triplicate test tubes containing 2.75 ml of the R-cefuroxime axetil solution, and triplicate tubes containing 2.75 ml of the S-cefuroxime axetil solution, were each heated to 37° C. and diluted with 0.25 ml of the serum preparation from above. Aliquot portions (200 μl each) from each tube were drawn at thirty minute intervals, diluted with 100 μl of 10% aqueous trichloracetic acid, and 100 μl of acetonitrile. The samples were centrifuged at 3000 rpm for five minutes to precipitate the proteins, and then transferred to autosampler tubes for determination of cefuroxime free acid content. Analysis was conducted using a Beckman 344 gradient high performance liquid chromatography column packed with zorbox C18 reverse phase, with an eluant comprised of 40 parts methanol and 60 parts water. Standard integration of HPLC curves were carried out to convert the area to a mg/ml equivalent.

[4] = Hydrolysis in dog gut cell (intestine) preparation (Example 6); type: in vitro ADME
Description: About 18 inches of intestine was removed from a 13 month old male dog weighing 11.5 kg. The intestine section was washed several times with Sorenson's solution, and then sliced open lengthwise. The intestine cells were collected by scraping the inner surface of the intestine with a glass microscope slide, and provided 6.10 g of cell tissue. The cell tissue was placed in 30.5 ml of Sorenson's pH 7.5 phosphate buffer. The mixture was homogenized for 30 seconds with a Tek-Mar tissuemizer. The resulting suspension was centrifuged at 4° C. at 3500 rpm for 15 minutes.
Following the general procedure of Example 2, 0.277 mg of R-cefuroxime axetil was dissolved in 50 ml of Sorenson's pH 7.4 buffer, and 0.263 mg of S-cefuroxime axetil was dissolved in 50 ml of Sorenson's pH 7.4 buffer.
Triplicate tubes of 2.75 ml of the R-cefuroxime axetil solution, and triplicate tubes of the S-cefuroxime axetil solution, were allowed to equilibrate to 37° C., and then 0.25 ml of the intestine mixture from above was added to each tube. Aliquot samples were withdrawn every 30 minutes for two hours, and each 200 μl of 10% aqueous trichloroacetic acid and 100 μl of acetonitrile. […] The assays were analyzed for unchanged R- or S-cefuroxime axetil and afforded the following results.

| SMILES | bioavailability of the cefuroxime antibiotic [1] | solubility (physchem; ethanol) | solubility (physchem; ethyl acetate) | solubility (physchem; isopropanol) | solubility (physchem; methanol) | solubility (physchem; n-butanol) | biological potency [2] | half-life (in words) [3] | hydrolysis rate relative to R-cefuroxime axetil in blood serum [3] | hydrolysis in blood serum (in words) ([3]; vs R-cefuroxime axetil) | hydrolysis rate relative to R-cefuroxime axetil in intestinal preparations [4] | hydrolysis in the dog gut (in words) ([4]; vs R-cefuroxime axetil) |
| --- | --- | --- | --- | --- | --- | --- | --- | --- | --- | --- | --- | --- |
| CO/N=C(\C(=O)N[C@@H]1C(=O)N2C(C(=O)OC(C)OC(C)=O)=C(COC(N)=O)CS[C@H]12)c1ccco1 (mixture of isomers) [R,S-mixture of cefuroxime axetil, 1-acetoxyethyl ester of cefuroxime] | about fifty |  |  |  |  |  |  |  |  |  |  |  |
| CO/N=C(\C(=O)N[C@@H]1C(=O)N2C(C(=O)O[C@H](C)OC(C)=O)=C(COC(N)=O)CS[C@H]12)c1ccco1 [R-cefuroxime axetil] |  | 12000 µg/mL (≈ 23.5 mM) | 13400 µg/mL (≈ 26.3 mM) | 1840 µg/mL (≈ 3.6 mM) | 391000 µg/mL (≈ 767 mM) | 1000 µg/mL (≈ 1.96 mM) | 99% | longer half-life |  |  |  |  |
| CO/N=C(\C(=O)N[C@@H]1C(=O)N2C(C(=O)O[C@@H](C)OC(C)=O)=C(COC(N)=O)CS[C@H]12)c1ccco1 [S-cefuroxime axetil, reference compound] |  | ~2980 µg/mL (≈ 5.84 mM) | 10000 µg/mL (≈ 19.6 mM) | 440 µg/mL (≈ 0.862 mM) | 90000 µg/mL (≈ 176 mM) | 300 µg/mL (≈ 0.588 mM) |  |  | about 25 fold | hydrolyzed much more rapidly | about 3 fold | hydrolyzed much more rapidly |

Source: patent US5063224A, “R-cefuroxime axetil” (priority 1990, dated 1991)
